Here are results for one molecule from patent publication US5504105A, “Pharmaceutical compositions containing ipriflavone, process for the preparation thereof and relative therapeutic use” (priority 1990, dated 1996).

For data set [1] the following is noted: cited from earlier work.
Data set [2] can be described thus: In-vivo bioavailability test: urinary excretion, capsules vs tablets, 8 healthy adult volunteers. On the set-up: species or system healthy adult volunteers (human). The conditions noted are these: first study.
Procedure: Concomitant drug treatment was avoided.
Urine was collected over the 24 hour period before treatment and on the tenth and eleventh days over the periods 0-24 hours and 24-48 hours after the assumption of the last dose. A homogenous sample (10 ml approx.) was prepared from the total urine excreted on the tenth and eleventh days; this sample was then stored at -20° C. until analised by HPLC.
The pharmacokinetic data were compared with those obtained administering an equivalent dose of ipriflavone in the standard formulation of 200 mg tablets three times daily (total dose 600 mg) according to an analogous study protocol.
For data set [3] the following is noted: human, in vivo. As for the experimental part: (§1) In this comparative study all the conditions that could influence in some measure the bioavailability behaviour such as meals, drug administration or samples collection were strictly standardized.
(§2) The study was carried out in twelve young healthy volunteers in good health.
(§3) All the subjects were on a standard diet for all the period of the study.
(§4) For each treatment, after an overnight fast, each subject received at 8:00 a.m. on Day 1 the first oral dosing. From Day 1 to Day 10 the daily doses were administered during the meals. The two different treatments (A and B) were the following:
(§5) Treatment A: one 200 mg Ipriflavone Tablet 3 times daily at 8:00 a.m. , 1:00 p.m. and 8:00 p.m.;
(§6) Treatment B: one 300 mg Ipriflavone Scherer capsule two times daily at 8:00 a.m. and 8:00 p.m.

Data set [4] in a line: Further comparative bioavailability study: urinary excretion, treatments A and B, twelve healthy volunteers. Type of data set: in vivo, young healthy volunteers (human). The conditions noted are these: each treatment, second study. As for the experimental part:
as §1, §2, §3, §4, §5, §6

For data set [5] the following is noted: in vivo; cited from earlier work.

For the molecule `CC(C)Oc1ccc2c(=O)c(-c3ccccc3)coc2c1` [Ipriflavone], in data set [1] (human, in vivo, po), the half-life is 9.8 h, the “peak plasma concentration of the unchanged drug” value is 170 ng/mL and the “time to peak plasma concentration after administration” value was 1.3 h. The “absorption and metabolism in man” value in data set [1] (oral, man) is “absorbed rapidly and, furtherly, extensively metabolised equally rapidly”. Besides, the “unchanged ipriflavone in urine” value in data set [2] is on record as “no detectable levels”. In data set [3], the “mean increment in bioavailability” value is 35% and the “plasma levels / metabolization in man” value is reported as “could not be quantified in several subjects”. Besides, in data set [4], the “unchanged ipriflavone in urine” value is listed as “no unchanged ipriflavone levels were found”. The effectiveness in osteoporosis result in data set [5] was “effective in preventing and treating post-menopausal and senile osteoporosis”.
